Entries after “also recorded” stand apart in the source; their conditions may differ.
Columns and labels:
paternal Ube3a-YFP [1] = assay: Western blot of UBE3A-YFP protein (anti-GFP) in Ube3a^m+/pYFP cortical neurons; assay type: cell-based, mouse; details: Topotecan 0.3 μM, PHA533533 1.0 μM; for UBE3A-YFP protein from the paternal allele (western blot): 72 hr, Compound X 0.5 μM, Compound Y 0.5 μM, EPZ5676 3 μM, EPZ5676 1 μM with P5-A4 1 μM, analogues 1 μM; for unsilencing of paternal Ube3a-YFP with CDK2 knocked down: CDK2 shRNA knockdown; for unsilencing of paternal Ube3a-YFP with CDK5 knocked down: CDK5 shRNA knockdown
Protocol: Cultured cortical neurons were infected at DIV 3 and virus was removed the next day (DIV 4). Neurons were further cultured and treated at DIV 10 with vehicle (0.1% DMSO) or the indicated compounds. To perform western blot analysis, the cultured neurons from 6-well plates were harvested and total protein was extracted with protein extraction buffer 72 hr after drug treatment, Bradford assays were performed to measure protein concentration, and 30 μg of total protein was loaded for Bis-polyacrylamide gel electrophoresis (Bio-Rad). Electrophoresed proteins were transferred to nitrocellulose membrane (0.45 μm, Bio-Rad). Membranes were blocked with 5% non-fat milk in 1×TBS-T at room temperature for 30 min followed by overnight 4° C. incubation with primary antibodies [rabbit anti-GFP (1:1000, Novus Biologicals), rabbit anti-Ube3a (1:1000, Bethyl Lab), rabbit anti-H3K79Me2 (1:1000, Abcam), rabbit anti-H3K79Me3 (1:1000, Abcam), and mouse anti-β-actin (1:5000, Sigma)]. The next day, the immunoblot membranes were rinsed with 1×TBS-T three times and incubated with HPR-conjugated secondary antibodies for 1 hr at room temperature (goat anti-rabbit @ 1:1000 or goat anti-mouse @ 1:1000, Vector Labs). Following secondary antibody incubation, the membranes were rinsed (4-5 times) with 1×TBS-T at room temperature for 1 hr and ECL (Bio-Rad) was used to visualize detected proteins using an Amersham Imager 600 (AI600, GE Life Sciences).

DOT1L = assay: Western blot of H3K79 methylation (anti-H3K79me2, anti-H3K79me3) in cortical neurons; assay type: cell-based, mouse; details: PHA533533 1.0 μM, Compound X 0.5 μM, EPZ5676 3 μM
Excerpt: shRNA knockdown and western blot analysis: Lentiviral shRNAs of Top1 (TRCN0000011884), CDK2 (TRCN0000023146), and CDK5 (TRCN0000009520) were generated using previously described techniques. Cultured cortical neurons were infected at DIV 3 and virus was removed the next day (DIV 4). Neurons were further cultured and treated at DIV 10 with vehicle (0.1% DMSO) or the indicated compounds. To perform western blot analysis, the cultured neurons from 6-well plates were harvested and total protein was extracted with protein extraction buffer 72 hr after drug treatment, Bradford assays were performed to measure protein concentration, and 30 μg of total protein was loaded for Bis-polyacrylamide gel electrophoresis (Bio-Rad). Electrophoresed proteins were transferred to nitrocellulose membrane (0.45 μm, Bio-Rad). Membranes were blocked with 5% non-fat milk in 1×TBS-T at room temperature for 30 min followed by overnight 4° C. incubation with primary antibodies [rabbit anti-GFP (1:1000, Novus Biologicals), rabbit anti-Ube3a (1:1000, Bethyl Lab), rabbit anti-H3K79Me2 (1:1000, Abcam), rabbit anti-H3K79Me3 (1:1000, Abcam), and mouse anti-β-actin (1:5000, Sigma)]. […] Following secondary antibody incubation, the membranes were rinsed (4-5 times) with 1×TBS-T at room temperature for 1 hr and ECL (Bio-Rad) was used to visualize detected proteins using an Amersham Imager 600 (AI600, GE Life Sciences).

Top2a = target: T1, Top2a (Homo sapiens, UniProt P11388); assay: Topoisomerase-based DNA relaxation assay, Top2a (kDNA decatenation); assay type: biochemical; details: catenated versus decatenated kDNA on agarose gel
T1 construct: purchased TopoGEN
T1 sequence (P11388 whole entry): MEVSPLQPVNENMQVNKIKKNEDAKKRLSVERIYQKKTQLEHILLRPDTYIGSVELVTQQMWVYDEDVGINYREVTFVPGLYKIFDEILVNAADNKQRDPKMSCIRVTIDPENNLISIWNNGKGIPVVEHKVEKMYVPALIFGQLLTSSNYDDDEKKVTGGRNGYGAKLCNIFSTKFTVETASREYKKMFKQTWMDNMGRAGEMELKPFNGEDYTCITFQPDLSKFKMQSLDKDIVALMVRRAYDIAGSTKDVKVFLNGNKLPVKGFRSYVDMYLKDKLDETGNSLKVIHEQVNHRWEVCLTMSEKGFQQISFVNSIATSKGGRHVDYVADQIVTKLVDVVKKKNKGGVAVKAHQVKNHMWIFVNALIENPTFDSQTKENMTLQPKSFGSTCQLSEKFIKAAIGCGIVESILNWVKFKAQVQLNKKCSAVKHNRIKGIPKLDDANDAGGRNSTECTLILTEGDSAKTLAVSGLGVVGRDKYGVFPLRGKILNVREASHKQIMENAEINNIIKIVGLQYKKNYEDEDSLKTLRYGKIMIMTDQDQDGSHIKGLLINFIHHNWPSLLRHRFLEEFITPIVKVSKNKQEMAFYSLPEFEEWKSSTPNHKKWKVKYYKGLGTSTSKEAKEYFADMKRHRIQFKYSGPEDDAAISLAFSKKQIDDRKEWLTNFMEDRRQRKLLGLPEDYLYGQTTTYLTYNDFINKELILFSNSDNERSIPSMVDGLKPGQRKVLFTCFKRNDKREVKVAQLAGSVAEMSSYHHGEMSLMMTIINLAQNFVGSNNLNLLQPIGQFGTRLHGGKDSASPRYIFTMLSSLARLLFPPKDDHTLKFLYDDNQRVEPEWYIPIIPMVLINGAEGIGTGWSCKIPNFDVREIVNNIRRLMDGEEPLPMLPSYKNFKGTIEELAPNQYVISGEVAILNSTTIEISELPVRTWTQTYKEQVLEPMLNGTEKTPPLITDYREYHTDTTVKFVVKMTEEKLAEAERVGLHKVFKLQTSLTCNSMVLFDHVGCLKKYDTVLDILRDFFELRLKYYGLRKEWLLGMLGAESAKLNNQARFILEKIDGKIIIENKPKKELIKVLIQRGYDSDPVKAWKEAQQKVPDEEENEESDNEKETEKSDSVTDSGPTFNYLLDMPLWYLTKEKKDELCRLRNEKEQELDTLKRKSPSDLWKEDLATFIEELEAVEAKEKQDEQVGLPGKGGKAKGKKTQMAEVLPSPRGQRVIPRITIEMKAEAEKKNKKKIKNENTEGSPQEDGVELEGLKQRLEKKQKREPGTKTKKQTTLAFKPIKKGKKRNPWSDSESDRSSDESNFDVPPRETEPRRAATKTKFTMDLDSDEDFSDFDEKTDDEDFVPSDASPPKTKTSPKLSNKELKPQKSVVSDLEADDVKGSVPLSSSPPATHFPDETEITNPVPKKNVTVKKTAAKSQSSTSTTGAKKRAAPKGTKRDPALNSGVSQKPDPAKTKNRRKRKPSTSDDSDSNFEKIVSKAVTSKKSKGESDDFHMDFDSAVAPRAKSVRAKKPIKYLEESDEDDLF
Protocol: Quantitative real-time PCR and topoisomerase-based DNA relaxation assay: Quantitative real-time PCR (qPCR) was performed using previously reported protocols. Briefly, total RNA was extracted from cultured cortical neurons carrying Ube3a^m+/pYFP after drug treatment using Direct-zol RNA kit (Zymo Research). cDNA pool was synthesized using 2 μg of total RNA and qScript cDNA Supermix (Quantabio). qPCR was performed using SsoAdvanced Universal SYBR green Supermix (Bio-rad). The primer sets were β-actin (forward, 5′-[…]-3′, SEQ ID NO:1; reverse, 5′-[…]-3, SEQ ID NO:2), YFP (forward, 5′-[…]-3′, SEQ ID NO:3; reverse, 5′-[…]-3′, SEQ ID NO:4), Ube3a-ATS (forward, 5′-[…]-3′, SEQ ID NO:5; reverse, 5′-[…]-3′, SEQ ID NO:6), Snrpn (forward, 5′-[…]-3′, SEQ ID NO:7; reverse, 5′-[…]-3′, SEQ ID NO:8), and Snord116 (forward, 5′-[…]-3′, SEQ ID NO:9; reverse, 5′-[…]-3′, SEQ ID NO:10). qPCR was performed using QuantStudio thermocycler (Thermo Fisher) with the following conditions: 95° C. for 5 min and followed by 40 cycles of 95° C. 10 sec, 60° C. 1 min. Relative quantity (RQ) was calculated after normalized ΔΔCt was calculated. Topoisomerase (Top)-based DNA relaxation assays were performed to test whether the drugs inhibited Top1, Top2a, and Top2b. Top1 and Top2a assay kits were purchased from TopoGEN, and Top2b enzyme was purchased from Inspiralis. All Top-based assays followed manufacturer protocols.

Ube3a-YFP mRNA = assay: Quantitative RT-PCR of Ube3a-YFP mRNA in cultured cortical neurons; assay type: cell-based, mouse; details: qPCR normalized to β-actin, after drug treatment
Protocol: (§1) Cell culture and drug treatment: Primary cortical neurons were isolated and cultured by following established protocol. Briefly, cortical neurons were isolated from embryos (E13.5-15.5) carrying paternal Ube3a-YFP (Ube3a^m+/pYFP) or maternal deletion of Ube3a (Ube3a^m−/p+). Isolated cortical neurons were plated onto 384-well plates coated with poly-D-lysine (2.0×10^4 cell/well) for high-content imaging analysis or 6-well plates coated with poly-D-lysine (1.0×10^6 cells/well) for molecular and biochemical assays (western blot analysis, quantitative RT-PCR, and shRNA knockdown). Cultured neurons were maintained for 7 days, replacing medium every 3-4 days. On day 7 (DIV 7), the indicated compounds were added at 0.3-1 μM to neurons for 72 hr to unsilence paternal Ube3a or Ube3a-YFP.
(§2) Quantitative real-time PCR and topoisomerase-based DNA relaxation assay: Quantitative real-time PCR (qPCR) was performed using previously reported protocols. Briefly, total RNA was extracted from cultured cortical neurons carrying Ube3a^m+/pYFP after drug treatment using Direct-zol RNA kit (Zymo Research). cDNA pool was synthesized using 2 μg of total RNA and qScript cDNA Supermix (Quantabio). qPCR was performed using SsoAdvanced Universal SYBR green Supermix (Bio-rad). […] Relative quantity (RQ) was calculated after normalized ΔΔCt was calculated. […]

paternal Ube3a-YFP [2] = assay: High-content imaging of paternal UBE3A-YFP in cultured cortical neurons (GFP antibody-enhanced fluorescence); assay type: cell-based, mouse; details: for percent of neurons expressing UBE3A-YFP above threshold: cultured mouse cortical neurons, 72 hr treatment, n=4, DMSO control 0.03±0.004%; for unsilencing of paternal Ube3a-YFP by imaging, in words: library screen at 1 μM or dose response, 72 hr
Protocol: as §1
Fluorescence immunocytochemistry and high content imaging analysis: Fluorescent immunocytochemistry and high content imaging analysis were performed by following previously described protocols with slight modifications. After 72 hr drug treatment, the neurons were fixed with 4% paraformaldehyde in 1×PBS at room temperature for 10 min. After brief washing with 1×PBS three times, neurons were permeabilized with 1% Triton-X 100 in 1×PBS at room temperature for 15 min, followed by blocking with 5% normal goat serum in 0.1% Triton-X 100 in 1×PBS at room temperature. 60 min after blocking, neurons were incubated with primary antibody, rabbit anti-GFP (1:1000, Novus Biologicals), at 4° C. overnight. Neurons were then briefly washed with 1×PBS followed by incubation with secondary antibody, goat anti-rabbit Alexa Fluor 488 (1:500, Thermo Fisher/Invitrogen) and Hoechst 33342 (Thermo Fisher), at room temperature for 60 min. Following secondary antibody incubation, neurons were washed with 1×PBS and fluorescent images were acquired using a BD Pathway 855 bioimager. All acquired images were analyzed by CellProfiler.
Fluorescence immunocytochemistry and high content imaging analysis: After 72-hour drug treatment, the neurons were fixed with 4% paraformaldehyde in phosphate-buffered saline (PBS) at room temperature for 10 min. After brief washing with PBS three times, neurons were permeabilized with 1% Triton-X 100 in PBS at room temperature for 10 min, followed by blocking with 5% normal goat serum in 0.1% Triton-X 100 in 1×PBS at room temperature. 30 min after blocking, neurons were incubated with primary antibodies rabbit anti-GFP (1:1000, NB 600308, Novus Biologicals) and mouse anti-NeuN (1:500, MAB 377, Millipore) at 4° C. overnight. Neurons were then briefly washed with 1×PBS followed by incubation with secondary antibodies goat anti-rabbit Alexa Fluor 488 (1:500, A11008, Thermo Fisher/Invitrogen) and anti-mouse Alexa Fluor 568 (1:500, A21124, ThermoFisher/Invitrogen) together with DAPI (4′,6-diamidino-2-phenylindole) at room temperature for 60 min. Following secondary antibody incubation, neurons were washed with 1×PBS and fluorescent images were acquired using Nikon Ti2 eclipse fluorescent microscope (Nikon Instruments Inc., Melville, NY, USA). Antibody-enhanced UBE3A-YFP fluorescence intensities were determined from DAPI and NeuN double-positive individual neurons in drug-treated wells and normalized to neurons in untreated wells. All acquired images were analyzed by Nikon NIS-Elements software (Nikon Instruments Inc., Melville, NY, USA). Sigmoidal curve fitting for the dose response analysis was performed using GraphPad Prism software version 8.0 (GraphPad Software, La Jolla, CA, USA). The calculated EC50 values (potencies) and Y value top plateau (estimated efficacies) enables comparative analyses of the relative potency and efficacy of the identified compounds.

Snrpn = assay: Quantitative RT-PCR of Snrpn mRNA in cultured cortical neurons; assay type: cell-based, mouse; details: qPCR normalized to β-actin, after drug treatment
Protocol: as §1, §2

Snord116 = assay: Quantitative RT-PCR of Snord116 mRNA in cultured cortical neurons; assay type: cell-based, mouse; details: qPCR normalized to β-actin, after drug treatment
Protocol: as §1, §2

paternal UBE3A = assay: Western blot of UBE3A protein (anti-Ube3a) in AS model (Ube3a^m-/p+) cortical neurons; assay type: cell-based, mouse; details: 72 hr; Topotecan 0.3 μM, PHA533533 1.0 μM, Compound X 0.5 μM, Compound Y 0.5 μM; versus DMSO-treated WT neurons
Protocol: as §1
shRNA knockdown and western blot analysis: Lentiviral shRNAs of Top1 (TRCN0000011884), CDK2 (TRCN0000023146), and CDK5 (TRCN0000009520) were generated using previously described techniques. Cultured cortical neurons were infected at DIV 3 and virus was removed the next day (DIV 4). […] Following secondary antibody incubation, the membranes were rinsed (4-5 times) with 1×TBS-T at room temperature for 1 hr and ECL (Bio-Rad) was used to visualize detected proteins using an Amersham Imager 600 (AI600, GE Life Sciences).

Ube3a-ATS = assay: Quantitative RT-PCR of Ube3a-ATS mRNA in cultured cortical neurons; assay type: cell-based, mouse; details: qPCR normalized to β-actin, after drug treatment
Protocol: as §1, §2

[3] = tested on: cultured mouse cortical neurons; assay type: cell-based
Protocol: Cytotoxicity test: Cytotoxicity of drugs was tested in cultured mouse cortical neurons in vitro. The manufacturer's protocol was followed to measure luminescence proportional to the number of dead cells using Cyto Tox-Glo assay (Promega). 72 hr after drug treatment, AAF-Glo substrates were directed added to the drug-treated (or 0.1% DMSO vehicle-treated) cortical neurons and incubated them at room temperature for 15 min. Luminescence produced by dead-cell protease activity was then measured.

Compound	UBE3A-YFP protein from the paternal allele (western blot) (paternal Ube3a-YFP [1])	methylation level on histone H3 lysine 79 (H3K79) (DOT1L)	inhibition of Top2a (Top2a)	mRNA of Ube3a-YFP (Ube3a-YFP mRNA)	percent of neurons expressing UBE3A-YFP above threshold (paternal Ube3a-YFP [2]) [%]	unsilencing of paternal Ube3a-YFP by imaging, in words (paternal Ube3a-YFP [2])	Snrpn mRNA (Snrpn)	Snord116 mRNA (Snord116)	UBE3A protein from the paternal allele in AS model neurons (western blot) (paternal UBE3A)	Ube3a-ATS mRNA (Ube3a-ATS)	unsilencing of paternal Ube3a-YFP with CDK2 knocked down (paternal Ube3a-YFP [1])	unsilencing of paternal Ube3a-YFP with CDK5 knocked down (paternal Ube3a-YFP [1])	other results
C[C@H](C(=O)Nc1cc(C2CC2)[nH]n1)c1ccc(N2CCOC2=O)cc1 [Compound P5-A4, (S)—N-(5-cyclopropyl-1H-pyrazol-3-yl)-2-(4-(2-oxooxazolidin-3-yl)phenyl)propenamide]	did not appreciably unsilence paternal Ube3a-YFP												
CC(C)N(C[C@H]1O[C@@H](n2cnc3c(N)ncnc32)[C@H](O)[C@@H]1O)[C@H]1C[C@@H](CCc2nc3cc(C(C)(C)C)ccc3[nH]2)C1 [EPZ5676, reference compound]	did not appreciably unsilence paternal Ube3a-YFP	reduced methylation level on histone H3 lysine 79 (H3K79)											
C[C@H](C(=O)Nc1cc(C2CC2)[nH]n1)c1ccc(N2CCCC2=O)cc1 [PHA533533]	increased UBE3A-YFP protein to levels approaching that of topotecan; also recorded: can produce UBE3A-YFP	reduced methylation level on histone H3 lysine 79 (H3K79)	partially inhibited Top2a	upregulated	63.7±14.3	effectively unsilenced paternal Ube3a-YFP; also recorded: can unsilence paternal Ube3a-YFP	decreased	decreased	unsilenced paternal UBE3A at levels that approached that of UBE3A levels in DMSO-treated neurons from WT mice	significantly decreased; also recorded: downregulates Ube3a-ATS	did not unsilence paternal Ube3a-YFP unless neurons were treated	further enhanced	potency (EC50) compared to topotecan, in words (paternal Ube3a-YFP [2]; dose response, normalized fluorescent intensity): slightly lower potency than topotecan
O=C(Cc1ccc2ccccc2c1)Nc1cc(C2CC2)[nH]n1 [PNU0292137]						could not produce appreciable increases							
CC[C@@]1(O)C(=O)OCc2c1cc1n(c2=O)Cc2cc3c(CN(C)C)c(O)ccc3nc2-1 [topotecan, reference compound]				upregulated	37.3±3.7	unsilenced paternal UBE3A-YFP	decreased	decreased	unsilenced paternal UBE3A at levels that approached that of UBE3A levels in DMSO-treated neurons from WT mice	significantly decreased	did not unsilence paternal Ube3a-YFP unless neurons were treated	further enhanced	LC50 / cytotoxicity compared to topotecan, in words [3]: comparable LC50; unsilencing of paternal Ube3a-YFP with Top1 knocked down (paternal Ube3a-YFP [1]; Top1 shRNA knockdown): occlude unsilencing; also recorded: occluded the ability
ICRF-193 [reference compound]			inhibits the relaxation of catenated kDNA										
